# Test results as given in patent publication US6479435B1, “Diaryl ethers and processes for their preparation and herbicidal and desiccant compositions containing them” (ISK Americas Incorporated, priority 1997, dated 2002).
# Assays:
# Type in all cases: in vivo
# [1] = tested on: sicklepod (Cassia obtusifolia, CASOB); experiment: Post-emerge greenhouse herbicide test, phytotoxicity rating; conditions: 14 days after application
# Procedure, shortened: (§1)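 Compounds in acetone with 0.25% v/v non-ionic surfactant were track-sprayed at 187 l/ha over plants at the 2-3 leaf stage, at 63 to 1000 g ai/ha. Pots were bottom-watered. Injury was scored visually 14 days later on a 0-100 scale, where 0 is no damage and 100 is complete plant death.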
# [2] = tested on: barnyardgrass (Echinochloa crusgalli, ECHCG); experiment: as above; conditions: 14 days after application
# Procedure, shortened: as §1
# [3] = tested on: green foxtail (Setaria viridis, SETVI); experiment: as above; conditions: 14 days after application
# Procedure, shortened: as §1
# [4] = tested on: Johnsongrass (Sorghum halepense, SORHA); experiment: as above; conditions: 500 g al/ha, 14 days after application
# Procedure, shortened: as §1
# [5] = tested on: ivyleaf morningglory (Ipomoea hederacea, IPOHE); experiment: as above; conditions: 14 days after application
# Procedure, shortened: as §1
# [6] = tested on: large crabgrass (Digitaria sanguinalis, DIGSA); experiment: as above; conditions: 14 days after application
# Procedure, shortened: as §1
# [7] = tested on: velvetleaf (Abutilon theophrasti, ABUTH); experiment: as above; conditions: 14 days after application
# Procedure, shortened: as §1
# [8] = tested on: redroot pigweed (Amaranthus retroflexus, AMARE); experiment: as above; conditions: 14 days after application
# Procedure, shortened: as §1
# [9] = tested on: lambsquarters (Chenopodium album, CHEAL); experiment: as above; conditions: 14 days after application
# Procedure, shortened: as §1
# [10] = tested on: upland rice (Oryza sp., var.Tebonnet, RICE); experiment: Post-emerge greenhouse test, crop damage rating; conditions: 14 days after application
# Procedure, shortened: as §1
# [11] = tested on: field corn (Zea mays L., var. Dekalb 535, CORN); experiment: Post-emerge greenhouse test, crop damage rating; conditions: 14 days after application
# Procedure, shortened: as §1
# [12] = tested on: soybean (Glycine max L., var. Pella 86, SOY); experiment: Post-emerge greenhouse test, crop damage rating; conditions: 14 days after application
# Procedure, shortened: as §1
# [13] = tested on: common ragweed (Ambrosia artemisiifolia L., AMBEL); experiment: Post-emerge greenhouse herbicide test, phytotoxicity rating; conditions: 14 days after application
# Procedure, shortened: as §1
# [14] = tested on: sicklepod (Cassia obtusifolia, CASOB); experiment: Pre-emerge greenhouse herbicide test, phytotoxicity rating; conditions: 14 days after application, rating scale 0-100
# Procedure, shortened: (§2)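 Seeds sown in sandy loam mix one day before track-sprayer application of compounds in acetone at 125–1000 g ai/ha (187 l/ha), then surface-watered to incorporate and bottom-watered. Visual rating 14 days after application on a 0–100 scale (0 = no damage, 100 = all plants dead).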
# [15] = tested on: barnyardgrass (Echinochloa crusgalli, ECHCG); experiment: as above; conditions: 14 days after application, rating scale 0-100
# Procedure, shortened: as §2
# [16] = tested on: green foxtail (Setaria viridis, SETVI); experiment: as above; conditions: 14 days after application, rating scale 0-100
# Procedure, shortened: as §2
# [17] = tested on: Johnsongrass (Sorghum halepense, SORHA); experiment: as above; conditions: 500 g ai/ha, 14 days after application, rating scale 0-100
# Procedure, shortened: as §2
# [18] = tested on: common ragweed (Ambrosia artemisiifolia L., AMBEL); experiment: as above; conditions: 14 days after application, rating scale 0-100
# Procedure, shortened: as §2
# [19] = tested on: ivyleaf morningglory (Ipomoea hederacea, IPOHE); experiment: as above; conditions: 14 days after application, rating scale 0-100
# Procedure, shortened: as §2
# [20] = tested on: large crabgrass (Digitaria sanguinalis, DIGSA); experiment: as above; conditions: 14 days after application, rating scale 0-100
# Procedure, shortened: as §2
# [21] = tested on: velvetleaf (Abutilon theophrasti, ABUTH); experiment: as above; conditions: 14 days after application, rating scale 0-100
# Procedure, shortened: as §2
# [22] = tested on: redroot pigweed (Amaranthus retroflexus, AMARE); experiment: as above; conditions: 14 days after application, rating scale 0-100
# Procedure, shortened: as §2
# [23] = tested on: lambsquarters (Chenopodium album, CHEAL); experiment: as above; conditions: 14 days after application, rating scale 0-100
# Procedure, shortened: as §2
# [24] = tested on: soybean (Glycine max L., var. Pella 86, SOY); experiment: Pre-emerge greenhouse test, crop damage rating; conditions: 14 days after application, rating scale 0-100
# Procedure, shortened: as §2
# [25] = tested on: upland rice (Oryza sp., var.Tebonnet, RICE); experiment: Pre-emerge greenhouse test, crop damage rating; conditions: 14 days after application, rating scale 0-100
# Procedure, shortened: as §2
# [26] = tested on: field corn (Zea mays L., var. Dekalb 535, CORN); experiment: Pre-emerge greenhouse test, crop damage rating; conditions: 14 days after application, rating scale 0-100
# Procedure, shortened: as §2
compound,measurement,setting,value
O=C1C2CCCCN2C(=O)N1c1cc(Oc2ncccc2C(F)(F)F)c(Cl)cc1F (centres unmarked) [Compound 8-4],CASOB phytotoxicity rating (0-100),[1]; 63 g al/ha,20
same,CASOB phytotoxicity rating (0-100),[1]; 500 g al/ha,40
same,ECHCG phytotoxicity rating (0-100),[2]; 63 g al/ha,0
same,ECHCG phytotoxicity rating (0-100),[2]; 500 g al/ha,0
same,SETVI phytotoxicity rating (0-100),[3]; 63 g al/ha,10
same,SETVI phytotoxicity rating (0-100),[3]; 500 g al/ha,10
same,SORHA phytotoxicity rating (0-100),[4],0
same,IPOHE phytotoxicity rating (0-100),[5]; 63 g al/ha,50
same,IPOHE phytotoxicity rating (0-100),[5]; 500 g al/ha,60
same,DIGSA phytotoxicity rating (0-100),[6]; 63 g al/ha,0
same,DIGSA phytotoxicity rating (0-100),[6]; 500 g al/ha,0
same,ABUTH phytotoxicity rating (0-100),[7]; 63 g al/ha,70
same,ABUTH phytotoxicity rating (0-100),[7]; 500 g al/ha,85
same,AMARE phytotoxicity rating (0-100),[8]; 63 g al/ha,60
same,AMARE phytotoxicity rating (0-100),[8]; 500 g al/ha,100
same,CHEAL phytotoxicity rating (0-100),[9]; 63 g al/ha,70
same,CHEAL phytotoxicity rating (0-100),[9]; 500 g al/ha,75
same,RICE crop damage rating (0-100),[10]; 63 g al/ha,0
same,RICE crop damage rating (0-100),[10]; 500 g al/ha,0
same,CORN crop damage rating (0-100),[11]; 63 g al/ha,5
same,CORN crop damage rating (0-100),[11]; 500 g al/ha,10
same,SOY crop damage rating (0-100),[12]; 63 g al/ha,20
same,SOY crop damage rating (0-100),[12]; 500 g al/ha,30
same,AMBEL phytotoxicity rating (0-100),[13]; 63 g al/ha,0
same,AMBEL phytotoxicity rating (0-100),[13]; 500 g al/ha,0
same,phytotoxicity rating CASOB,[14]; 125 g ai/ha,30
same,phytotoxicity rating CASOB,[14]; 500 g ai/ha,90
same,phytotoxicity rating ECHCG,[15]; 125 g ai/ha,10
same,phytotoxicity rating ECHCG,[15]; 500 g ai/ha,30
same,phytotoxicity rating SETVI,[16]; 125 g ai/ha,50
same,phytotoxicity rating SETVI,[16]; 500 g ai/ha,100
same,phytotoxicity rating SORHA,[17],70
same,phytotoxicity rating AMBEL,[18]; 125 g ai/ha,20
same,phytotoxicity rating AMBEL,[18]; 500 g ai/ha,0
same,phytotoxicity rating IPOHE,[19]; 125 g ai/ha,0
same,phytotoxicity rating IPOHE,[19]; 500 g ai/ha,0
same,phytotoxicity rating DIGSA,[20]; 125 g ai/ha,30
same,phytotoxicity rating DIGSA,[20]; 500 g ai/ha,90
same,phytotoxicity rating ABUTH,[21]; 125 g ai/ha,100
same,phytotoxicity rating ABUTH,[21]; 500 g ai/ha,100
same,phytotoxicity rating AMARE,[22]; 125 g ai/ha,100
same,phytotoxicity rating AMARE,[22]; 500 g ai/ha,100
same,phytotoxicity rating CHEAL,[23]; 125 g ai/ha,70
same,phytotoxicity rating CHEAL,[23]; 500 g ai/ha,100
same,crop damage rating SOY,[24]; 125 g ai/ha,0
same,crop damage rating SOY,[24]; 500 g ai/ha,0
same,crop damage rating RICE,[25]; 125 g ai/ha,0
same,crop damage rating RICE,[25]; 500 g ai/ha,30
same,crop damage rating CORN,[26]; 125 g ai/ha,0
same,crop damage rating CORN,[26]; 500 g ai/ha,0
